This note sets out measurements from US9469615B2, “Quinoxalines and AZA-quinoxalines as CRTH2 receptor modulators” (Merck Sharp & Dohme Corp., priority 2010, dated 2016).

In one assay the target is T1, hCRTH2 (Homo sapiens, UniProt Q9Y5Y4).
T1 construct: expressed in transfected cells; host or cells: HEK (human embryonic kidney) cells expressing hCRTH2; membrane preparation
T1 sequence (Q9Y5Y4 1-395): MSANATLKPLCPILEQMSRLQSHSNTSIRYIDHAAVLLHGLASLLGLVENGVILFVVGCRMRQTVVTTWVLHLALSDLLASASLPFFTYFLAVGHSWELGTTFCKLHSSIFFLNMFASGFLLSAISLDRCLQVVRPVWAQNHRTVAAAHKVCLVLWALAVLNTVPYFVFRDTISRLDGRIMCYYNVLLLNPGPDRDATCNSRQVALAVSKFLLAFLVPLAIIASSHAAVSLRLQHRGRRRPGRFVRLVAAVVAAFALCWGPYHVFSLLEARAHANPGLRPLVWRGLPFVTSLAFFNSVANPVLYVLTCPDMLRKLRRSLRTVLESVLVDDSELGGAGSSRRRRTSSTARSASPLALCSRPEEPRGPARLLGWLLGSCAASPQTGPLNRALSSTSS
The experiment in a line: Radioligand binding assay ([3H]PGD2 competition, HEK-hCRTH2 membranes). The settings on record: [3H]PGD2 binding, rated A-E (Table A). The method, boiled down: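 Competition binding with 3.0 nM [3H]PGD2 and 8-20 μg HEK-hCRTH2 membrane protein in 50 mM Tris-HCl pH 7.4, 1 mM EDTA, 2 mM MnCl2, 1% Me2SO, 60 min at room temperature. Nonspecific binding defined with 10 μM PGD2; bound radioactivity counted after filtration.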
Consider `O=C(O)CCCCc1nc2cc(C(=O)N[C@@H](c3ccc(Cl)cc3)C(F)(F)F)ccc2nc1-c1ccc(F)cc1` [compound 227, 7-[[[1(S)-(4-chlorophenyl)-2,2,2-trifluoroethyl]amino]carbonyl]-3-(4-fluorophenyl)-2-quinoxalinepentanoic acid], for which the Ki (commonly the equilibrium dissociation constant of an inhibitor or competing ligand from its target) is 0.1 to 2 nM. In the case of `O=C(O)CCCCc1nc2cc(C(=O)N[C@H](c3ccc(Cl)cc3)C(F)(F)F)ccc2nc1-c1ccc(F)cc1` [compound 228, 7-[[[1(R)-(4-chlorophenyl)-2,2,2-trifluoroethyl]amino]carbonyl]-3-(4-fluorophenyl)-2-quinoxalinepentanoic acid], the inhibition constant (Ki) lay within 0.1 to 2 nM.

Regarding `O=C(O)CCCCc1nc2cc(C(=O)N[C@@H]3CCc4ccccc43)ccc2nc1-c1ccc(F)cc1` [compound 229, 7-[[(2,3-dihydro-1H-inden-1(R)-yl)amino]carbonyl]-3 - (4-fluorophenyl)-2-quinoxalinepentanoic acid], the Ki fell in the range of 0.1 to 2 nM.

For the compound `O=C(O)CCCCc1nc2cc(C(=O)N[C@H]3CCc4ccccc43)ccc2nc1-c1ccc(F)cc1` [compound 230, 7-[[(2,3-dihydro-1H-inden-1(S)-yl)amino]carbonyl]-3-(4-fluorophenyl)-2-quinoxalinepentanoic acid], the Ki is 0.1 to 2 nM. Compound `C[C@@H](NC(=O)c1ccc2nc(-c3ccccc3)c(CC[C@@H]3C[C@H]3C(=O)O)nc2c1)c1ccc(Cl)cc1` [compound 232, trans-2-[2-[7-[[[1(R)-(4-chlorophenyl)ethyl]amino]carbonyl]-3-phenyl-2-quinoxalinyl]ethyl] cyclopropanecarboxylic acid] showed a Ki of 2.1 to 20 nM.

`C[C@@H](NC(=O)c1ccc2nc(-c3ccccc3)c(CC[C@H]3C[C@@H]3C(=O)O)nc2c1)c1ccc(Cl)cc1` [compound 233, trans-2-[2-[7-[[[1(R)-(4-chlorophenyl)ethyl]amino]carbonyl]-3-phenyl-2-quinexalinyl]ethyl]cyclopropanecarboxylic acid] yielded a Ki of 2.1 to 20 nM.

As to `C[C@@H](NC(=O)c1ccc2nc(-c3ccccc3)c(CCCCC(=O)O)nc2c1)c1ccc(F)cc1` [compound 234, 7-[[[1(R)-(4-fluorophenyl)ethyl]amino]carbonyl]-3-phenyl-2-quinoxalinepentanoic acid], the Ki lay within 2.1 to 20 nM.

For the compound `C[C@H](NC(=O)c1ccc2nc(-c3ccccc3)c(CCCCC(=O)O)nc2c1)c1ccc(F)cc1` [compound 235, 7-[[[1(S)-(4-fluorophenyl)ethyl]amino]carbonyl]-3-phenyl-2-quinoxalinepentanoic acid], the Ki lay within 2.1 to 20 nM. Still for that read-out and setting: the value for `C[C@H](c1ccc(F)cc1)N(C)C(=O)c1ccc2nc(-c3ccccc3)c(CCCCC(=O)O)nc2c1` [compound 236, 7-[[[1(R)-(4-fluorophenyl)ethyl]methylamino]carbonyl]-3-phenyl-2-quinoxalinepentanoic acid] was 2.1 to 20 nM; that for `C[C@@H](c1ccc(F)cc1)N(C)C(=O)c1ccc2nc(-c3ccccc3)c(CCCCC(=O)O)nc2c1` [compound 237, 7-[[[1(S)-(4-fluorophenyl)ethyl]methylamino]carbonyl]-3-phenyl-2-quinoxalinepentanoic acid] was 2.1 to 20 nM. Still for that read-out and setting: the value for `C[C@H](c1ccc(Cl)cc1)N(C)C(=O)c1ccc2nc(-c3ccccc3)c(CCCCC(=O)O)nc2c1` [compound 238, 7-[[[1(R)-(4-chlorophenyl)ethyl]methylamino]carbonyl]-3-phenyl-2-quinoxalinepentanoic acid] was 2.1 to 20 nM; that for `C[C@@H](c1ccc(Cl)cc1)N(C)C(=O)c1ccc2nc(-c3ccccc3)c(CCCCC(=O)O)nc2c1` [compound 239, 7-[[[1(S)-(4-chlorophenyl)ethyl]methylamino]carbonyl]-3-phenyl-2-quinoxalinepentanoic acid] was 2.1 to 20 nM; that for `C[C@H](c1ccc(F)cc1)N(C)C(=O)c1ccc2nc(-c3ccc(F)cc3)c(CCCCC(=O)O)nc2c1` [compound 240, 3-(4-fluorophenyl)-7-[[[1(R)-(4-fluorophenyl)ethyl]methylamino]carbonyl]-2-quinoxalinepentanoic acid] was 2.1 to 20 nM.

Compound `C[C@@H](c1ccc(F)cc1)N(C)C(=O)c1ccc2nc(-c3ccc(F)cc3)c(CCCCC(=O)O)nc2c1` [compound 241, 3-(4-fluorophenyl)-7-[[[1(S)-(4-fluorophenyl)ethyl]methylamino]carbonyl]-2-quinoxalinepentanoic acid] registered a Ki of 2.1 to 20 nM. Same read-out and setting: the value for `C[C@H](c1ccc(Cl)cc1)N(C)C(=O)c1ccc2nc(-c3ccc(F)cc3)c(CCCCC(=O)O)nc2c1` [compound 242, 7-[[[1(R)-(4-chlorophenyl)ethyl]methylamino]carbonyl]-3-(4-fluorophenyl)-2-quinoxalinepentanoic acid] was 2.1 to 20 nM; that for `C[C@@H](c1ccc(Cl)cc1)N(C)C(=O)c1ccc2nc(-c3ccc(F)cc3)c(CCCCC(=O)O)nc2c1` [compound 243, 7-[[[1(S)-(4-chlorophenyl)ethyl]methylamino]carbonyl]-3-(4-fluorophenyl)-2-quinoxalinepentanoic acid] was 2.1 to 20 nM. `O=C(O)CCCCc1nc2cc(C(=O)N3CCC(c4ncccn4)CC3)ccc2nc1-c1ccc(F)cc1` [compound 244, 3-(4-fluorophenyl)-7-[[4-(2-pyrimidinyl)-1-piperidinyl]carbonyl]-2-quinoxalinepentanoic acid] yielded a Ki of 2.1 to 20 nM. Same read-out and setting: then `O=C(O)CCCCc1nc2cc(C(=O)N3CCC(c4ncccn4)CC3)ccc2nc1-c1ccccc1` [compound 245, 3-phenyl-7-[[4-(2-pyrimidinyl)-1-piperidinyl]carbonyl]-2-quinoxalinepentanoic acid], with 2.1 to 20 nM.

The compound `N#Cc1ccc(C2CN(C(=O)c3ccc4nc(-c5ccc(F)cc5)c(CCCCC(=O)O)nc4c3)C2)cc1` [compound 246, 7-[[3-(4-cyanophenyl)-1-azetidinyl]carbonyl]-3-(4-fluorophenyl)-2-quinoxalinepentanoic acid] registered an inhibition constant Ki of 0.1 to 2 nM. The same measure, in the same setting: the value for `O=C(O)CCCCc1nc2cc(C(=O)N3CC(c4nc5ccccc5[nH]4)C3)ccc2nc1-c1ccccc1` [compound 247, 7-[[3-(1H-benzimidazol-2-yl)-1-azetidinyl]carbonyl]-3-phenyl-2-quinoxalinepentanoic acid] was 2.1 to 20 nM; that for `O=C(O)CCCCc1nc2cc(C(=O)N3CC(c4nc5ccccc5o4)C3)ccc2nc1-c1ccc(F)cc1` [compound 248, 7-[[3-(2-benzoxazolyl)-1-azetidinyl]carbonyl]-3-(4-fluorophenyl)-2-quinoxalinepentanoic acid] was 2.1 to 20 nM. The same measure, in the same setting: the value for `O=C(O)CCCCc1nc2cc(C(=O)N3CC(c4ccc(F)c(F)c4)C3)ccc2nc1-c1ccccc1` [compound 249, 7-[[3-(3,4-difluorophenyl)-1-azetidinyl]carbonyl]-3-phenyl-2-quinoxalinepentanoic acid] was 0.1 to 2 nM.

`O=C(O)CCCCc1nc2cc(C(=O)N3CC(c4ccc(F)cc4)C3)ccc2nc1-c1ccccc1` [compound 250, 7-[[3-(4-fluorophenyl)-1-azetidinyl]carbonyl]-3-phenyl-2-quinoxalinepentanoic acid]: the Ki lay within 0.1 to 2 nM. On the same count and under the same terms, then `O=C(O)CCCCc1nc2cc(C(=O)N3CC(c4cccc(F)c4)C3)ccc2nc1-c1ccccc1` [compound 251, 7-[[3-(3-fluorophenyl)-1-azetidinyl]carbonyl]-3-phenyl-2-quinoxalinepentanoic acid], with 0.1 to 2 nM; and `O=C(O)CCCCc1nc2cc(C(=O)N3CC(c4ccc(Cl)cc4)C3)ccc2nc1-c1ccccc1` [compound 252, 7-[[3-(4-chlorophenyl)-1-azetidinyl]carbonyl]-3-phenyl-2-quinoxalinepentanoic acid], with 0.1 to 2 nM; and `O=C(O)CCCCc1nc2cc(C(=O)N3CC(c4cccc(Cl)c4)C3)ccc2nc1-c1ccccc1` [compound 253, 7-[[3-(3-chlorophenyl)-1-azetidinyl]carbonyl]-3-phenyl-2-quinoxalinepentanoic acid], with 0.1 to 2 nM. Still for that read-out and setting: then `O=C(O)CCCCc1nc2cc(C(=O)N[C@@H]3CCCc4cc(F)ccc43)ccc2nc1-c1ccccc1` [compound 254, 7-[[(6-fluoro-1,2,3,4-tetrahydro-1(R)-naphthalenyl)amino]carbonyl]-3-phenyl-2-quinoxalinepentanoic acid], with 0.1 to 2 nM; and `O=C(O)CCCCc1nc2cc(C(=O)N[C@@H]3CCCc4cc(Cl)ccc43)ccc2nc1-c1ccccc1` [compound 255, 7-[[(6-chloro-1,2,3,4-tetrahydro-1(R)-naphthalenyl)amino)carbonyl]-3-phenyl-2-quinoxalinepentanoic acid], with 0.1 to 2 nM.

Staying with this assay, now noted: [3H]PGD2 binding, values in text.
Consider `N#Cc1ccc(C2CN(C(=O)c3ccc4nc(-c5ccc(F)cc5)c(CCCCC(=O)O)nc4c3)C2)cc1` [compound 246, 7-[[3-(4-cyanophenyl)-1-azetidinyl]carbonyl]-3-(4-fluorophenyl)-2-quinoxalinepentanoic acid], for which the inhibition constant Ki came out at 1.9 nM. On the same count and under the same terms, then `O=C(O)CCCCc1nc2cc(C(=O)N3CC(c4cccc(F)c4)C3)ccc2nc1-c1ccccc1` [compound 251, 7-[[3-(3-fluorophenyl)-1-azetidinyl]carbonyl]-3-phenyl-2-quinoxalinepentanoic acid], with 1 nM. Same read-out and setting: then `O=C(O)CCCCc1nc2cc(C(=O)N[C@@H]3CCCc4cc(Cl)ccc43)ccc2nc1-c1ccccc1` [compound 255, 7-[[(6-chloro-1,2,3,4-tetrahydro-1(R)-naphthalenyl)amino)carbonyl]-3-phenyl-2-quinoxalinepentanoic acid], with 1.5 nM.

Staying with this assay, now noted: [3H]PGD2 competition, Table B.
In the case of `O=C(O)CCCCc1nc2cc(C(=O)N[C@@H]3CCCc4ccccc43)ccc2nc1-c1ccccc1` [compound 256, (R)-5-(3-phenyl-7-((1,2,3,4-tetrahydronaphthalen-1-yl)carbamoyl)quinoxalin-2-yl)pentanoic acid], the Ki was 0.1 to 2 nM.

With `C[C@H](NC(=O)c1ccc2nc(-c3ccc(Cl)cc3)c(CCCCC(=O)O)nc2c1)c1ccc(C#N)cc1` [compound 257], the Ki was in the range of 2.1 to 20 nM.
